Key:
Cytochrome P450 1A2 = biological target: T1, Cytochrome P450 1A2 (Homo sapiens, UniProt P05177); assay: Inhibition of CYP1A2 in human liver microsomes using Phenacetin as substrate measured after 20 mins by LC-MS/MS analysis; type: ADME
T1 sequence (P05177 whole entry): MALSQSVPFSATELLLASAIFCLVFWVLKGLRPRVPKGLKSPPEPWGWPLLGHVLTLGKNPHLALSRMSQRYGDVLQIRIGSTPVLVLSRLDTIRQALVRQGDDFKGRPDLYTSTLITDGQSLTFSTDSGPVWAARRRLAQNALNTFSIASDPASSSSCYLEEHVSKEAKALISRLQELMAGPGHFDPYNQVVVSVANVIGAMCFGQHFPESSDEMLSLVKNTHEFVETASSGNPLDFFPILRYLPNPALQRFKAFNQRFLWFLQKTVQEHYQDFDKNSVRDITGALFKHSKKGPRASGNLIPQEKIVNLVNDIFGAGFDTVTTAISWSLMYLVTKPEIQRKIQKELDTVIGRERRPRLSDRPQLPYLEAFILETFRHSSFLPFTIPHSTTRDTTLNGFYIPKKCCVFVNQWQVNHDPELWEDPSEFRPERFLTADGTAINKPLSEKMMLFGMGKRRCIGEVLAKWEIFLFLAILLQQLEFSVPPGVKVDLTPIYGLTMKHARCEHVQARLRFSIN

[1] = Metabolic stability in human hepatocytes assessed as half life measured upto 120 mins by LC-MS/MS analysis; type: ADME, cell-based, Hepatocyte
[2] = Metabolic stability in human hepatocytes assessed as clearance incubated up to 120 mins measured per million cells by LC-MS/MS analysis; type: ADME, cell-based, Hepatocyte; conditions: read-out: CLH
[3] = Metabolic stability in rat hepatocytes assessed as half life measured upto 120 mins by LC-MS/MS analysis; type: ADME, cell-based, Hepatocyte
[4] = Metabolic stability in rat hepatocytes assessed as intrinsic clearance incubated up to 120 mins measured per million cells by LC-MS/MS analysis; type: ADME, cell-based, Hepatocyte; conditions: read-out: CLH
RAW264.7 [5] = assay: Antiinflammatory activity against mouse RAW264.7 cells assessed as inhibition of LPS-induced NO production at 10 uM preincubated for 1 hrs followed by LPS stimulation and measured after 24 hrs by Griess assay relative to control; type: functional; conditions: time 25 hrs
L02 [6] = assay: Antiinflammatory activity against human L02 assessed as inhibition of LPS-induced NO production preincubated for 1 hrs followed by LPS stimulation and measured after 24 hrs by Griess assay relative to control; type: functional, cell-based
RAW264.7 [7] = assay: Inhibition of LPS-induced NO release in mouse RAW264.7 cells preincubated for 1 hrs followed by LPS stimulation and measured after 24 hrs by Griess reagent based assay; type: functional, cell-based
[8] = biological target: T2, Nitric oxide synthase, inducible (Mus musculus, UniProt P29477); assay: Inhibition of LPS induced NO-dependent iNOS activity in mouse RAW 264.7 cells preincubated for 1 hrs followed by LPS stimulation and measured after 24 hrs by Griess reagent based assay; type: cell-based, RAW264.7
T2 sequence (P29477 whole entry): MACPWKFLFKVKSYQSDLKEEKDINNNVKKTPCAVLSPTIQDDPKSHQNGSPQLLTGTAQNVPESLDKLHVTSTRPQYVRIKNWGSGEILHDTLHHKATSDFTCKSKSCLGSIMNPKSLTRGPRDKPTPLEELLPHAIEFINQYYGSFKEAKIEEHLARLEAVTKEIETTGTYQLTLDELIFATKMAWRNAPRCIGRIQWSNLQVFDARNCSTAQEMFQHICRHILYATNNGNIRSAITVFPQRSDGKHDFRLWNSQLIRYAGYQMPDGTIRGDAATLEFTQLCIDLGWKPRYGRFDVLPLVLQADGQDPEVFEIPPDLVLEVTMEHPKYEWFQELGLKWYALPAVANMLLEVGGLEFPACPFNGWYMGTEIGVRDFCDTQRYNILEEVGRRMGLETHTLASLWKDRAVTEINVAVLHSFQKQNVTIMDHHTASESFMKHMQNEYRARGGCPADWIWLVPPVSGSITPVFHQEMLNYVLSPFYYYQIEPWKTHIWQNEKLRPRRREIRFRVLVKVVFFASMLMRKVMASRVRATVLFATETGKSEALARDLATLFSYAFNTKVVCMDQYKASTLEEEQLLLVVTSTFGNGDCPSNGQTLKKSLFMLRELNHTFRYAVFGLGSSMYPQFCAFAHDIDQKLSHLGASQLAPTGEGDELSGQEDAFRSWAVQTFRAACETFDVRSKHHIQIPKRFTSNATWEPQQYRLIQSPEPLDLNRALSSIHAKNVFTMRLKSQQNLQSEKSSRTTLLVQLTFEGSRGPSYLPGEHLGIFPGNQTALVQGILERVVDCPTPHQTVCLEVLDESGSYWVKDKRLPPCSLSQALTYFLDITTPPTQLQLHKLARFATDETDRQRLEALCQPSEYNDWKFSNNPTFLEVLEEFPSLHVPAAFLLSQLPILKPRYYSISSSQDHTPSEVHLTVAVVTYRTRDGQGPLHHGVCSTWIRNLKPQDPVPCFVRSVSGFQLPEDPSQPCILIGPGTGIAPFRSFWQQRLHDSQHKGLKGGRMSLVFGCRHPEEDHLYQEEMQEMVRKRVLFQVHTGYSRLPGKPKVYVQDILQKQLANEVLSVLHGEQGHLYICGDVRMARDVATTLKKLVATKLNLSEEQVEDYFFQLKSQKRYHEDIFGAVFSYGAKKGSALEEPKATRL

RAW264.7 [9] = assay: Cytotoxicity against LPS-induced mouse RAW 264.7 cells assessed as cell viability measured by MTT assay; type: cell-based
RAW264.7 [10] = assay: Cytotoxicity against mouse RAW 264.7 cells assessed as cell viability by MTT assay; type: cell-based
L02 [11] = assay: Cytotoxicity against human L02 cells assessed as cell viability by MTT assay; type: cell-based
RAW264.7 [12] = assay: Cytotoxicity against mouse RAW264.7 cells at 20 uM measured after 24 hrs; type: cell-based; conditions: raw264.7, 24 h

| SMILES | IC50 (Cytochrome P450 1A2) | half-life [1] | hepatocyte CLint [2] | half-life [3] | hepatocyte CLint [4] | inhibition at 10 µM (RAW264.7 [5]) | IC50 (L02 [6]) | IC50 (RAW264.7 [7]) | IC50 [8] | IC50 (RAW264.7 [9]) | IC50 (RAW264.7 [10]) | IC50 (L02 [11]) | Activity (RAW264.7 [12]) |
| --- | --- | --- | --- | --- | --- | --- | --- | --- | --- | --- | --- | --- | --- |
| O=c1cc(-c2ccccc2)oc2ccc3ccccc3c12 [BETA-NAPHTHOFLAVONE] | 0.0835 µM |  |  |  |  |  |  |  |  |  |  |  |  |
| Cc1ncc2n1-c1ccc(Cl)cc1C(c1ccccc1F)=NC2 [MIDAZOLAM] |  | 16.3 min | 42.6 µL/min/1e6 cells | 3.9 min | 176 µL/min/1e6 cells |  |  |  |  |  |  |  |  |
| COc1cc(/C=C/c2nc(Nc3ccc(C(F)(F)F)cc3)c3sccc3n2)cc(OC)c1OC |  |  |  |  |  | 55.4% | 436 µM | 9.36 µM | 4.2 µM | > 50 µM | > 50 µM | 436 µM | Non-Toxic |
| COc1cc(/C=C/c2nc(NCc3ccccc3)c3sccc3n2)cc(OC)c1OC |  |  |  |  |  | 71.9% | > 1000 µM | 8.26 µM | 3.62 µM | > 50 µM | > 50 µM | 1800 µM | Non-Toxic |
| C[C@@H]1C[C@H]2[C@@H]3CCC4=CC(=O)C=C[C@]4(C)[C@@]3(F)[C@@H](O)C[C@]2(C)[C@@]1(O)C(=O)CO [DEXAMETHASONE] |  |  |  |  |  | 51.8% | 4620 µM | 8.71 µM | > 10 µM | > 50 µM | > 50 µM | 4620 µM |  |
| CCOc1ccc(NC(C)=O)cc1 [PHENACETIN] |  | 43.8 min | 15.8 µL/min/1e6 cells | 32.6 min | 21.3 µL/min/1e6 cells |  |  |  |  |  |  |  |  |
| COc1cc(/C=C/c2nc(NC3CC3)c3sccc3n2)cc(OC)c1OC |  |  |  |  |  | 90.7% | > 1000 µM | 6.03 µM | 4.32 µM | > 50 µM | > 50 µM | 2360 µM | Non-Toxic |
| COc1cc(/C=C/c2nc(NCc3ccc(Cl)cc3)c3sccc3n2)cc(OC)c1OC |  |  |  |  |  | 65.5% | > 1000 µM | 9.05 µM | 4.23 µM | > 50 µM | > 50 µM | 4320 µM | Non-Toxic |
| COc1cc(/C=C/c2nc(NCc3ccncc3)c3sccc3n2)cc(OC)c1OC |  |  |  |  |  | 76% | 374 µM | 6.35 µM | 3.12 µM | > 50 µM | > 50 µM | 374 µM | Non-Toxic |
| COc1ccc2[nH]c([S+]([O-])Cc3ncc(C)c(OC)c3C)nc2c1 (configuration not stated) [OMEPRAZOLE] |  | 28.2 min | 24.6 µL/min/1e6 cells | 13.5 min | 51.4 µL/min/1e6 cells |  |  |  |  |  |  |  |  |
| COc1ccc(CNc2nc(/C=C/c3cc(OC)c(OC)c(OC)c3)nc3ccsc23)cc1 |  |  |  |  |  | 73.7% | > 1000 µM | 7.54 µM | 3.26 µM | > 50 µM | > 50 µM | 2050 µM | Non-Toxic |
| COc1cc(/C=C/c2nc(Nc3ccc(O)cc3)c3sccc3n2)cc(OC)c1OC |  |  |  |  |  | 97.7% | > 1000 µM | 4.07 µM | 1.89 µM | > 50 µM | > 50 µM | 2300 µM | Non-Toxic |
| COc1ccc2c(c1)[C@]13CCCC[C@@H]1[C@H](C2)N(C)CC3 [DEXTROMETHORPHAN] |  | 14.5 min | 47.8 µL/min/1e6 cells | 4.6 min | 150 µL/min/1e6 cells |  |  |  |  |  |  |  |  |
| COc1ccc(Nc2nc(/C=C/c3cc(OC)c(OC)c(OC)c3)nc3ccsc23)cc1 |  |  |  |  |  | 52.5% | 279 µM | 10.7 µM | 5.12 µM | > 50 µM | > 50 µM | 279 µM | Non-Toxic |
| O=C(O)Cc1ccccc1Nc1c(Cl)cccc1Cl [DICLOFENAC] |  | 9.1 min | 75.8 µL/min/1e6 cells | 13.6 min | 50.3 µL/min/1e6 cells |  |  |  |  |  |  |  |  |

From ChEMBL document CHEMBL4813945, “Discovery and development of novel pyrimidine and pyrazolo/thieno-fused pyrimidine derivatives as potent and orally active inducible nitric oxide synthase dimerization inhibitor with efficacy for arthritis” (Eur J Med Chem, 2021)
